Experimental data taken from US9340590B2 (priority 2011, dated 2016).
Positions of bridges follow the written chain, without caps; N, C: chain ends. Non-standard residues stand in square brackets, D forms with d. Residues, ends and D or L forms follow the SMILES beside them. Phe(4-COOH) = N[C@@H](Cc1ccc(C(=O)O)cc1)C(=O)O; Trp(1-Me) = Cn1cc(C[C@H](N)C(=O)O)c2ccccc21; 2Nal = N[C@@H](Cc1ccc2ccccc2c1)C(=O)O; Pra = C#CC[C@H](N)C(=O)O; Abu = CC[C@H](N)C(=O)O

Key:
hNav1.5 = hNav1.5 (Homo sapiens, UniProt Q14524); test: cell-based
hNav1.7 = hNav1.7 (Homo sapiens, UniProt Q15858); test: cell-based; details: Nav1.7 Use IC50
Chain of hNav1.7 (Q15858 whole entry, looked up): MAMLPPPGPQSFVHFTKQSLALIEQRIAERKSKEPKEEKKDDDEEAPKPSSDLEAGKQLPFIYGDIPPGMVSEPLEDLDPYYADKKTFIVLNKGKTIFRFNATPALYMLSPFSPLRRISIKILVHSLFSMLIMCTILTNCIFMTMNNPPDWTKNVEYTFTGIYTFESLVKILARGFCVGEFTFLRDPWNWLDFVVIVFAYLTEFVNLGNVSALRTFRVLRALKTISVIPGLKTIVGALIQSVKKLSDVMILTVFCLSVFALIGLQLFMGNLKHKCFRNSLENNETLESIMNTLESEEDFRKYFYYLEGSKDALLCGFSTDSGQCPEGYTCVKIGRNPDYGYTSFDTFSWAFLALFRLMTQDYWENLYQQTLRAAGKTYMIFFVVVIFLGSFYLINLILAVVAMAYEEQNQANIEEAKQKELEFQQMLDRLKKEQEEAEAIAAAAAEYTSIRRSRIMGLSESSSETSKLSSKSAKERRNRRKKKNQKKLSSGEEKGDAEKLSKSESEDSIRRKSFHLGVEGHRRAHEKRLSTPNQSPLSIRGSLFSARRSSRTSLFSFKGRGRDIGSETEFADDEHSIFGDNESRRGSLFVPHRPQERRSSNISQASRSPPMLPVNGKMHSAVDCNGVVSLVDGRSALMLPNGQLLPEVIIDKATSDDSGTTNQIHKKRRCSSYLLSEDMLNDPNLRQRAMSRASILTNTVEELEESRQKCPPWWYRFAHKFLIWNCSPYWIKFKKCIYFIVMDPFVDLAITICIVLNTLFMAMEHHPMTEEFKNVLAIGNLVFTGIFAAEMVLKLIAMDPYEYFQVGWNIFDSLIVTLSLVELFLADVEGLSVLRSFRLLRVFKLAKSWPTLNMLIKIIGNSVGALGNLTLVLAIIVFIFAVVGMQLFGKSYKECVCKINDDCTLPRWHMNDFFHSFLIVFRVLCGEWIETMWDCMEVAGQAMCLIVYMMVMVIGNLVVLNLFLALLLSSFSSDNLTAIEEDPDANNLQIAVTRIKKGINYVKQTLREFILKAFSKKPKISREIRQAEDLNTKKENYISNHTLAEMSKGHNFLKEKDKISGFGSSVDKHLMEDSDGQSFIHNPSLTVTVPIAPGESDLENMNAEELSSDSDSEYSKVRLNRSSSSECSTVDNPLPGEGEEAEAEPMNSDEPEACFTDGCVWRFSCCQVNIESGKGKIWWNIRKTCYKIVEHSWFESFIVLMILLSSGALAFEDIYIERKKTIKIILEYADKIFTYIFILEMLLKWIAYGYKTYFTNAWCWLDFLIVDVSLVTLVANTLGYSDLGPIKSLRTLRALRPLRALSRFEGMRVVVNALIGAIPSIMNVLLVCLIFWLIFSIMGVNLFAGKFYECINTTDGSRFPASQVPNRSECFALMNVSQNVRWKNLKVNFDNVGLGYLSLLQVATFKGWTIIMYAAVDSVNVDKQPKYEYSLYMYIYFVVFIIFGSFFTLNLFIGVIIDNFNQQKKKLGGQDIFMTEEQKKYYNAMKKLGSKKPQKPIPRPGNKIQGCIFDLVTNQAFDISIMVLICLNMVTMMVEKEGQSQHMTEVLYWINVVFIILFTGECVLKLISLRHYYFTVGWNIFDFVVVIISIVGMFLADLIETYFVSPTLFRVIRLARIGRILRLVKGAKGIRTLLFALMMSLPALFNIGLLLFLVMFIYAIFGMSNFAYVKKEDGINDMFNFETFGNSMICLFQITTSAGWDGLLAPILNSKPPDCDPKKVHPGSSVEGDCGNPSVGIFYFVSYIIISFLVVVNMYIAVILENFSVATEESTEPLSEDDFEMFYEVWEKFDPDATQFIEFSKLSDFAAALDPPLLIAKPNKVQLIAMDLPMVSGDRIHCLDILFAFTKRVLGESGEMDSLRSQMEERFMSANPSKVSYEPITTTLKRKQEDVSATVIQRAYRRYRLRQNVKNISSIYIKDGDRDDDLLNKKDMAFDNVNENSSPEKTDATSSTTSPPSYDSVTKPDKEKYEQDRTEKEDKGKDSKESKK

Chain of hNav1.5 (Q14524 whole entry, looked up): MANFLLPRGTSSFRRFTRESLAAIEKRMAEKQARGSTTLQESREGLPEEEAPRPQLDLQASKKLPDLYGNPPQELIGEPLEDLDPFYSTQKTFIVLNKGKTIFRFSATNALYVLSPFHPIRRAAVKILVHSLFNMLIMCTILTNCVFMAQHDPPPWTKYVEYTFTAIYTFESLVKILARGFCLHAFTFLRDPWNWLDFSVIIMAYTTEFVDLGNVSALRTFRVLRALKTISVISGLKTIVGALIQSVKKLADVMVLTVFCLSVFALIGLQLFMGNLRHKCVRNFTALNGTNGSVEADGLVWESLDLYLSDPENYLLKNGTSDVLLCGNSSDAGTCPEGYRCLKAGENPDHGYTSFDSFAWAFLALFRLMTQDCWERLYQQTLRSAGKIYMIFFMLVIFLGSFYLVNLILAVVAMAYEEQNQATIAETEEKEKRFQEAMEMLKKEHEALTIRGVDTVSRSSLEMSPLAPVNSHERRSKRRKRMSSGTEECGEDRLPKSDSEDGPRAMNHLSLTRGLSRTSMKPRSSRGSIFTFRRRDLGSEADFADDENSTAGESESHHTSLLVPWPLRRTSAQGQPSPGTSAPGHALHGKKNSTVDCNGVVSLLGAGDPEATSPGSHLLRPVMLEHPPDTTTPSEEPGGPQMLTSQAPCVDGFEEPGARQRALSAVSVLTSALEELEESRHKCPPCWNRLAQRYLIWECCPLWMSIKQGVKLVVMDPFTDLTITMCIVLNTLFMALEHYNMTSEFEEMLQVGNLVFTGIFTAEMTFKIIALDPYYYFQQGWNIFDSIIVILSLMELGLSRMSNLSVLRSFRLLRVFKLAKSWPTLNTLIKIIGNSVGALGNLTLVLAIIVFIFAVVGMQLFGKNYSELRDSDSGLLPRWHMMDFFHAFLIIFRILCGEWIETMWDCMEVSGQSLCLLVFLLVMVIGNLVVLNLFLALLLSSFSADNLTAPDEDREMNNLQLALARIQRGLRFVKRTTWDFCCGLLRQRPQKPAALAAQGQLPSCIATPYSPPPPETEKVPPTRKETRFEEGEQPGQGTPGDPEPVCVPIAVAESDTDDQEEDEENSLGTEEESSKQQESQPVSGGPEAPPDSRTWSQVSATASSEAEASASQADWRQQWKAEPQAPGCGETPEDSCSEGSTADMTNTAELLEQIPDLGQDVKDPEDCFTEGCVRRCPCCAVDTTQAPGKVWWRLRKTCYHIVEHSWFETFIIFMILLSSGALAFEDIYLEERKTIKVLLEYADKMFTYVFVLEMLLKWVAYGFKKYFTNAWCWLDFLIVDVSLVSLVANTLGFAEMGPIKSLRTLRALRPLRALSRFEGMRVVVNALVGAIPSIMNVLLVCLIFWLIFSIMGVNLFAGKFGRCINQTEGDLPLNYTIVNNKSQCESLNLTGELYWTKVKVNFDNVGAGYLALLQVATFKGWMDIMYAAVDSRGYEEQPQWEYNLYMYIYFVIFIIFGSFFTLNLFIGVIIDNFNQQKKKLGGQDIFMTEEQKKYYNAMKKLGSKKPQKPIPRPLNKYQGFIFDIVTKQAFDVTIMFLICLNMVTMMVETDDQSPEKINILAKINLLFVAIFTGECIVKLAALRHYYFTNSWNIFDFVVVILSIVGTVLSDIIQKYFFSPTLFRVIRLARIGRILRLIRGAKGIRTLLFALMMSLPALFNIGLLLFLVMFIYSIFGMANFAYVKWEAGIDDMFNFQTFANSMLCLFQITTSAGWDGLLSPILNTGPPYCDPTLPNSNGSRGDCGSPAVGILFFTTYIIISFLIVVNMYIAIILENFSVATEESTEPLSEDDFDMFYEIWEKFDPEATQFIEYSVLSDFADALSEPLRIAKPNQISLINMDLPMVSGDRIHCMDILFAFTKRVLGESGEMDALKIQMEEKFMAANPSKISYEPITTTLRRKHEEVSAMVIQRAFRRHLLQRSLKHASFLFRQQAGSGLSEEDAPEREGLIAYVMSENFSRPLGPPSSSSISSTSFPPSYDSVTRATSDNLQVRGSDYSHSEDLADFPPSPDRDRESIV

SMILES	IC50 (hNav1.5) [nM]	IC50 (hNav1.7) [nM]
CSCC[C@@H]1NC(=O)[C@H](C)NC(=O)CNC(=O)[C@H](CC(C)C)NC(=O)[C@@H](NC(=O)[C@@H](N)CC(=O)O)CSSC[C@@H]2NC(=O)[C@@H]3CSSC[C@@H](C(=O)N[C@@H](CCCCN)C(=O)N[C@@H](Cc4ccc(O)cc4)C(=O)N[C@H](C(=O)N[C@@H](Cc4ccccc4)C(N)=O)C(C)C)NC(=O)[C@H](Cc4c[nH]c5ccccc45)NC(=O)[C@H](CCCCN)NC(=O)[C@H](Cc4c[nH]cn4)NC(=O)[C@H]([C@@H](C)O)NC(=O)[C@H](CCCNC(=N)N)NC(=O)[C@H](CO)NC(=O)[C@H](CSSC[C@H](NC(=O)[C@H](CCCCN)NC(=O)[C@H](CCCNC(=N)N)NC1=O)C(=O)N[C@@H](CC(=O)O)C(=O)N1CCC[C@H]1C(=O)N[C@@H](CCC(=O)O)C(=O)N[C@@H](CC(N)=O)C(=O)N[C@@H](CC(=O)O)C(=O)N[C@@H](CCCCN)C(=O)N3)NC(=O)[C@H](C(C)C)NC(=O)[C@H](CC(C)C)NC(=O)[C@H](CC(N)=O)NC(=O)[C@@H]1CCCN1C(=O)[C@H](CCCNC(=N)N)NC2=O [[Ala5;Asp10;Glu12]GpTx-1(1-34)] (H-DCLGAMRKCDPENDKCCRPNLVCSRTHKWCKYVF-NH2; disulfide 2-17, 9-23, 16-30)	> 10000	554
CC[C@H](C)[C@@H]1NC(=O)[C@@H]2CSSC[C@@H]3NC(=O)[C@H](C(C)C)NC(=O)[C@H](CC(C)C)NC(=O)[C@H](CC(N)=O)NC(=O)[C@@H]4CCCN4C(=O)[C@H](CCCNC(=N)N)NC(=O)[C@H](CSSC[C@H](NC(=O)[C@@H](N)CC(=O)O)C(=O)N[C@@H](CC(C)C)C(=O)NCC(=O)N[C@@H](C)C(=O)N[C@@H](CC(C)C)C(=O)N[C@@H](CCCNC(=N)N)C(=O)N[C@@H](CCCCN)C(=O)N2)NC(=O)[C@H](CSSC[C@@H](C(=O)N[C@@H](CCCCN)C(=O)N[C@@H](Cc2ccc(O)cc2)C(=O)N[C@H](C(=O)N[C@@H](Cc2ccccc2)C(N)=O)C(C)C)NC(=O)[C@H](Cc2c[nH]c4ccccc24)NC(=O)[C@H](CCCCN)NC(=O)[C@H](Cc2c[nH]cn2)NC(=O)[C@H]([C@@H](C)O)NC(=O)[C@H](CCCNC(=N)N)NC(=O)[C@H](CO)NC3=O)NC(=O)[C@H](CCCCN)NC(=O)[C@H](CC(=O)O)NC(=O)[C@H](CC(N)=O)NC(=O)[C@H](CCC(=O)O)NC(=O)[C@@H]2CCCN2C1=O [[Ala5;Leu6;Glu12]GpTx-1(1-34)]	> 10000	21
CC[C@H](C)[C@@H]1NC(=O)[C@@H]2CSSC[C@@H]3NC(=O)[C@H](C(C)C)NC(=O)[C@H](CC(C)C)NC(=O)[C@H](CC(N)=O)NC(=O)[C@@H]4CCCN4C(=O)[C@H](CCCNC(=N)N)NC(=O)[C@H](CSSC[C@H](NC(=O)[C@@H](N)CC(=O)O)C(=O)N[C@@H](CC(C)C)C(=O)NCC(=O)N[C@@H](C(C)(C)C)C(=O)N[C@@H](CC(C)C)C(=O)N[C@@H](CCCNC(=N)N)C(=O)N[C@@H](CCCCN)C(=O)N2)NC(=O)[C@H](CSSC[C@@H](C(=O)N[C@@H](CCCCN)C(=O)N[C@@H](Cc2ccc(O)cc2)C(=O)N[C@H](C(=O)N[C@@H](Cc2ccccc2)C(N)=O)C(C)C)NC(=O)[C@H](Cc2c[nH]c4ccccc24)NC(=O)[C@H](CCCCN)NC(=O)[C@H](Cc2c[nH]cn2)NC(=O)[C@H]([C@@H](C)O)NC(=O)[C@H](CCCNC(=N)N)NC(=O)[C@H](CO)NC3=O)NC(=O)[C@H](CCCCN)NC(=O)[C@H](CC(=O)O)NC(=O)[C@H](CC(N)=O)NC(=O)[C@H](CC(=O)O)NC(=O)[C@@H]2CCCN2C1=O [[Tle5;Leu6]GpTx-1(1-34)]	> 10000	17
CC[C@H](C)[C@@H]1NC(=O)[C@@H]2CSSC[C@@H]3NC(=O)[C@H](C(C)C)NC(=O)[C@H](CC(C)C)NC(=O)[C@H](CC(N)=O)NC(=O)[C@@H]4CCCN4C(=O)[C@H](CCCNC(=N)N)NC(=O)[C@H](CSSC[C@H](NC(=O)[C@@H](N)CC(=O)O)C(=O)N[C@@H](CC(C)C)C(=O)NCC(=O)N[C@@H](CCSC)C(=O)N[C@@H](CCSC)C(=O)N[C@@H](CCCNC(=N)N)C(=O)N[C@@H](CCCCN)C(=O)N2)NC(=O)[C@H](CSSC[C@@H](C(=O)N[C@@H](CCCCN)C(=O)N[C@@H](Cc2cn(C)c4ccccc24)C(=O)N[C@H](C(=O)N[C@@H](Cc2ccccc2)C(N)=O)C(C)C)NC(=O)[C@H](Cc2c[nH]c4ccccc24)NC(=O)[C@H](CCCCN)NC(=O)[C@H](Cc2c[nH]cn2)NC(=O)[C@H]([C@@H](C)O)NC(=O)[C@H](CCCNC(=N)N)NC(=O)[C@H](CO)NC3=O)NC(=O)[C@H](CCCCN)NC(=O)[C@H](CC(=O)O)NC(=O)[C@H](CC(N)=O)NC(=O)[C@H](CC(=O)O)NC(=O)[C@@H]2CCCN2C1=O [[Met5;1′NMeW32]GpTx-1(1-34)] (H-DCLGMMRKCIPDNDKCCRPNLVCSRTHKWCK[Trp(1-Me)]VF-NH2; disulfide 2-17, 9-23, 16-30)	14800	7
CC[C@H](C)[C@@H]1NC(=O)[C@@H]2CSSC[C@@H]3NC(=O)[C@H](C(C)C)NC(=O)[C@H](CC(C)C)NC(=O)[C@H](CC(N)=O)NC(=O)[C@@H]4CCCN4C(=O)[C@H](CCCNC(=N)N)NC(=O)[C@H](CSSC[C@H](NC(=O)[C@@H](N)CC(=O)O)C(=O)N[C@@H](CC(C)C)C(=O)NCC(=O)N[C@@H](Cc4ccccc4)C(=O)N[C@@H](CCSC)C(=O)N[C@@H](CCCNC(=N)N)C(=O)N[C@@H](CCCCN)C(=O)N2)NC(=O)[C@H](CSSC[C@@H](C(=O)N[C@@H](CCCCN)C(=O)N[C@@H](Cc2ccc(O)cc2)C(=O)N[C@@H](Cc2ccc(C(=O)O)cc2)C(=O)N[C@@H](Cc2ccccc2)C(N)=O)NC(=O)[C@H](Cc2c[nH]c4ccccc24)NC(=O)[C@H](CCCCN)NC(=O)[C@H](Cc2c[nH]cn2)NC(=O)[C@H]([C@@H](C)O)NC(=O)[C@H](CCCNC(=N)N)NC(=O)[C@H](CO)NC3=O)NC(=O)[C@H](CCCCN)NC(=O)[C@H](CC(=O)O)NC(=O)[C@H](CC(N)=O)NC(=O)[C@H](CC(=O)O)NC(=O)[C@@H]2CCCN2C1=O [[4CO2-F33]GpTx-1(1-34)] (H-DCLGFMRKCIPDNDKCCRPNLVCSRTHKWCKY[Phe(4-COOH)]F-NH2; disulfide 2-17, 9-23, 16-30)	> 10000	3
CC[C@@H]1NC(=O)[C@@H]2CSSC[C@@H](C(=O)N[C@@H](CCCCN)C(=O)N[C@@H](Cc3ccc(O)cc3)C(=O)N[C@H](C(=O)N[C@@H](Cc3ccccc3)C(N)=O)C(C)C)NC(=O)[C@H](Cc3c[nH]c4ccccc34)NC(=O)[C@H](CCCCN)NC(=O)[C@H](Cc3c[nH]cn3)NC(=O)[C@H]([C@@H](C)O)NC(=O)[C@H](CCCNC(=N)N)NC(=O)[C@H](CO)NC(=O)[C@H](CSSC[C@H](NC(=O)[C@H](CCCCN)NC(=O)[C@H](CCCNC(=N)N)NC(=O)[C@H](CCSC)NC(=O)[C@H](Cc3ccccc3)NC(=O)CNC(=O)[C@H](CC(C)C)NC(=O)[C@H](CC)NC(=O)[C@@H](N)CC(=O)O)C(=O)N[C@@H]([C@@H](C)CC)C(=O)N3CCC[C@H]3C(=O)N[C@@H](CC(=O)O)C(=O)N[C@@H](CC(N)=O)C(=O)N[C@@H](CC(=O)O)C(=O)N[C@@H](CCCCN)C(=O)N2)NC(=O)[C@H](C(C)C)NC(=O)[C@H](CC(C)C)NC(=O)[C@H](CC(N)=O)NC(=O)[C@@H]2CCCN2C(=O)[C@H](CCCNC(=N)N)NC1=O [[2-Abu2,17]GpTx-1(1-34)] (H-D[Abu]LGFMRKCIPDNDKC[Abu]RPNLVCSRTHKWCKYVF-NH2; disulfide 9-23, 16-30)	10000	21
C#CC[C@@H]1NC(=O)[C@H](CC(=O)O)NC(=O)[C@@H]2CCCN2C(=O)[C@H]([C@@H](C)CC)NC(=O)[C@@H]2CSSC[C@@H]3NC(=O)[C@H](C(C)C)NC(=O)[C@H](CC(C)C)NC(=O)[C@H](CC(N)=O)NC(=O)[C@@H]4CCCN4C(=O)[C@H](CCCNC(=N)N)NC(=O)[C@H](CSSC[C@H](NC(=O)[C@@H](N)CC(=O)O)C(=O)N[C@@H](CC(C)C)C(=O)NCC(=O)N[C@@H](C)C(=O)N[C@@H](Cc4ccccc4)C(=O)N[C@@H](CCCNC(=N)N)C(=O)N[C@@H](CCCCN)C(=O)N2)NC(=O)[C@H](CSSC[C@@H](C(=O)N[C@@H](CCCCN)C(=O)N[C@@H](Cc2ccc(O)cc2)C(=O)N[C@H](C(=O)N[C@@H](Cc2ccccc2)C(N)=O)C(C)C)NC(=O)[C@H](Cc2c[nH]c4ccccc24)NC(=O)[C@H](CCCNC(=N)N)NC(=O)[C@H](Cc2c[nH]cn2)NC(=O)[C@H](CC(C)C)NC(=O)[C@H](CCCNC(=N)N)NC(=O)[C@H](CO)NC3=O)NC(=O)[C@H](CCCCN)NC(=O)[C@H](CC(=O)O)NC1=O (H-DCLGAFRKCIPD[Pra]DKCCRPNLVCSRLHRWCKYVF-NH2; disulfide 2-17, 9-23, 16-30)	> 10000	3
CC[C@H](C)[C@@H]1NC(=O)[C@@H]2CSSC[C@@H]3NC(=O)[C@H](C(C)C)NC(=O)[C@H](CC(C)C)NC(=O)[C@H](CC(N)=O)NC(=O)[C@@H]4CCCN4C(=O)[C@H](CCCNC(=N)N)NC(=O)[C@H](CSSC[C@H](NC(=O)[C@@H](N)CC(=O)O)C(=O)N[C@@H](CC(C)C)C(=O)NCC(=O)N[C@@H](Cc4ccccc4)C(=O)N[C@@H](CCSC)C(=O)N[C@@H](CCCNC(=N)N)C(=O)N[C@@H](CCCCN)C(=O)N2)NC(=O)[C@H](CSSC[C@@H](C(=O)N[C@@H](CCCCN)C(=O)N[C@@H](Cc2ccc(O)cc2)C(=O)N[C@H](C(=O)N[C@@H](Cc2ccccc2)C(N)=O)C(C)C)NC(=O)[C@H](Cc2ccc4ccccc4c2)NC(=O)[C@H](CCCCN)NC(=O)[C@H](Cc2c[nH]cn2)NC(=O)[C@H]([C@@H](C)O)NC(=O)[C@H](CCCNC(=N)N)NC(=O)[C@H](CO)NC3=O)NC(=O)[C@H](CCCCN)NC(=O)[C@H](CC(=O)O)NC(=O)[C@H](CC(N)=O)NC(=O)[C@H](CC(=O)O)NC(=O)[C@@H]2CCCN2C1=O [[2-Nal29]GpTx-1(1-34)] (H-DCLGFMRKCIPDNDKCCRPNLVCSRTHK[2Nal]CKYVF-NH2; disulfide 2-17, 9-23, 16-30)	> 10000	66
